According to US8431596B2 (Cancer Research Technology Limited, priority 2007, dated 2013):
Values joined by “and” are separate entries in the source; they are usually repeats but may differ in a detail not shown here. Equal entries are not always repeated.

Molecular target: T1, AXL (human catalytic domain) (Homo sapiens, UniProt P30530)
T1 construct: purchased Upstate Ltd. 14-512
T1 sequence (P30530 473-894): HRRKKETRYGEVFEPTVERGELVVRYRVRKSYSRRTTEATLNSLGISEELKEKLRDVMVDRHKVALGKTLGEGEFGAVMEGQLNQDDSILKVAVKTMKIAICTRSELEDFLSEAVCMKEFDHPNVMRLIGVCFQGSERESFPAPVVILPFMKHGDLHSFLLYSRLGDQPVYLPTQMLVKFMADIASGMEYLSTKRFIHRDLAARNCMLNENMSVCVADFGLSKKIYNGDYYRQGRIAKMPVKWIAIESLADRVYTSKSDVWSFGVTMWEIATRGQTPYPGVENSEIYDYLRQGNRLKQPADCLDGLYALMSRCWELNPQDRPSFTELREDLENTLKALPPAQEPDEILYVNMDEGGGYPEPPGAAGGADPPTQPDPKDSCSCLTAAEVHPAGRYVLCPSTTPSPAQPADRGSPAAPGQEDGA
Assay: AXL (human catalytic domain) Enzyme Activity Assay (IMAP fluorescence polarisation)
Format: biochemical
Description: Biological Methods AXL (human catalytic domain) Enzyme Activity Assay Reagents
Kinase Assay Reaction Buffer: This consisted of 20 mM HEPES pH 7.0, 10 mM MgCl2, 1 mM DTT, […], 0.01% Triton X100 (v/v), and 0.01% BSA (w/v). All buffer components were purchased from Sigma-Aldrich at reagent grade or higher.
Kinase: Recombinant AXL isoform 1 (aa473-894 corresponding to Genbank Accession Number NP 068713) at 2 mg/mL (20.8 μM) was purchased from Upstate Ltd. (Product code 14-512, lot #28164U). The enzyme was stored at −80° C. and a working stock was prepared to a concentration of 30 nM by diluting 20.8 μM stock 1:693 in cold (4° C.) 1× Reaction Buffer. Final enzyme concentration in the assay was 15 nM.
Substrate: Fluorescein labelled CSK-tide 5FAM-[…]-NH2 was obtained from Molecular Devices (Product code R7270) and used at a working concentration of 200 nM by diluting the 100 μM stock 1:500 in 1× Reaction Buffer in a mix with the enzyme. A negative control (lacking enzyme) was prepared at the same concentrations. Final substrate concentration in the assay was 100 nM.
ATP: Supplied by Sigma (product code A-7699). A 100 mM ATP stock was prepared in […] and used at a working concentration of 375 μM by diluting the 100 mM stock 1:266.6 in Reaction Buffer. Final ATP concentration in the assay was 150 μM; this concentration represents the KM.ATP for this enzyme calculated in this assay.
IMAP Reagents: IMAP screening express kit was obtained from Molecular Devices (product code R8127). The binding reagent was gently re-suspended before diluting by 1:1000 in buffer (Binding Buffer is supplied as a 5× stock and so was diluted with water prior to use—this assay used 40% buffer A and 60% buffer B) and then vortexed before addition to wells. The binding reagent was used at a final dilution of 1:1333.
1 μL samples of test compounds in 10% DMSO/water were added to “test” wells by dry-spotting using a Matrix Platemate Plus. 5 μL Kinase/Substrate in Reaction Buffer were added to columns 1-22 of a Corning black low binding 384 well #6754 (90 μL volume) microplate to give 12 nM and 100 nM reaction concentration respectively. 5 μL substrate in Reaction Buffer was added to columns 23 and 24 to give 100 nM reaction concentration. 4 μL ATP in Reaction Buffer was added to all wells to give 150 μM reaction concentration. The reaction mixture was then incubated at room temperature for 60 minutes. The incubation period was followed by the addition of 20 μL IMAP Binding Reagent in Binding Buffer to all wells. The IMAP reaction detection was further incubated at room temperature overnight. The FP on a Tecan Ultra Plate reader was recorded as a single read at Ex485 Em535.
Percentage inhibition was calculated based on activity of the test sample minus the average values in the blank wells relative to the average values measured in control wells minus the average values in the blank wells.
IC50 values were calculated from 10 point dose sigmoid ‘dose-response’ curves using XIfit software (IDBS Inc, USA). Data were fitted to a 4 parameter logistic model/sigmoidal dose response defined by the following equation:
[formula] where: • A=fit minimum (locked to 0); • B=fit maximum (locked to 100); • C=fit midpoint (pre-fit to 1); and • D=slope at linear portion of curve, hillslope (pre-fit to 0.1).
The value for C represents the IC50 of the test compound.

[1] = first data set, recombinant AXL isoform 1 aa473-894, 150 μM ATP
[2] = further data set (WW-001 through WW-169, XX-001 through XX-469, YY-001 through YY-016, ZZ-001 through ZZ-003), 150 μM ATP

| Compound | IC50 [1] | IC50 [2] |
| --- | --- | --- |
| CC(C)CNc1cccc2nc(NC(=O)C3CC3)nn12 [WW-079] | 1000 to 10000 nM | 1000 to 10000 nM |
| CC(C)(C)CNc1cccc2nc(NC(=O)C3CC3)nn12 [WW-080] | 1000 to 10000 nM | 1000 to 10000 nM |
| O=C(Nc1nc2cccc(NCc3cccc(Cl)c3)n2n1)C1CC1 [WW-081] | 1000 to 10000 nM | 1000 to 10000 nM |
| O=C(Nc1nc2cccc(NCc3ccccc3Cl)n2n1)C1CC1 [WW-082] | 1000 to 10000 nM | 1000 to 10000 nM |
| Cc1ccc(-c2cccc3nc(NC(=O)C4CC4)nn23)cn1 [WW-084] | 1000 to 10000 nM | 1000 to 10000 nM |
| O=C(Nc1nc2cccc(-c3cnc4ccccc4c3)n2n1)C1CC1 [WW-085] | 1000 to 10000 nM | 1000 to 10000 nM |
| Cc1cc(-c2cccc3nc(NC(=O)C4CC4)nn23)ccn1 [WW-087] | 1000 to 10000 nM | 1000 to 10000 nM |
| Cc1cc(-c2cccc3nc(NC(=O)C4CC4)nn23)cnc1F [WW-088] | 1000 to 10000 nM | 1000 to 10000 nM |
| O=C(Nc1nc2cccc(-c3ccc4ccccc4c3)n2n1)C1CC1 [WW-089] | < 1000 nM | 100 to 1000 nM |
| O=C(Nc1nc2cccc(-c3ccc(F)c(F)c3)n2n1)C1CC1 [WW-090] | 1000 to 10000 nM | 1000 to 10000 nM |
| O=C(Nc1nc2cccc(-c3cccc([N+](=O)[O-])c3)n2n1)C1CC1 [WW-091] | 1000 to 10000 nM | 1000 to 10000 nM |
| O=C(Nc1nc2cccc(-c3ccc4ncccc4c3)n2n1)C1CC1 [WW-092] | < 1000 nM | 100 to 1000 nM |
| COc1cc(-c2cccc3nc(NC(=O)C4CC4)nn23)ccc1O [WW-093] | 1000 to 10000 nM | 1000 to 10000 nM |
| COc1ccc(-c2cccc3nc(NC(=O)C4CC4)nn23)cc1C [WW-094] | < 1000 nM | 100 to 1000 nM |
| COc1c(C)cc(-c2cccc3nc(NC(=O)C4CC4)nn23)cc1C [WW-095] | 1000 to 10000 nM | 1000 to 10000 nM |
| O=C(Nc1nc2cccc(-c3ccc(O)c(F)c3)n2n1)C1CC1 [WW-096] | < 1000 nM | 100 to 1000 nM |
| O=C(Nc1nc2cccc(-c3ccc(F)c(O)c3)n2n1)C1CC1 [WW-097] | < 1000 nM | 100 to 1000 nM |
| COc1cc(-c2cccc3nc(NC(=O)C4CC4)nn23)ccc1F [WW-098] | 1000 to 10000 nM | 1000 to 10000 nM |
| O=C(Nc1nc2cccc(-c3ccc(OC(F)(F)F)cc3)n2n1)C1CC1 [WW-099] | 1000 to 10000 nM | 1000 to 10000 nM |
| COc1ccc(-c2cccc3nc(NC(=O)C4CC4)nn23)cc1OC [WW-100] | 1000 to 10000 nM | 1000 to 10000 nM |
| CCOc1ccc(-c2cccc3nc(NC(=O)C4CC4)nn23)cc1F [WW-101] | 1000 to 10000 nM | 1000 to 10000 nM |
| O=C(Nc1nc2cccc(-c3ccc4c(c3)OCCO4)n2n1)C1CC1 [WW-102] | < 1000 nM | 100 to 1000 nM |
| Cc1cc(-c2cccc3nc(NC(=O)C4CC4)nn23)ccc1N(C)C [WW-103] | < 1000 nM and 664 nM | 100 to 1000 nM |
| O=C(Nc1nc2cccc(-c3cnn(Cc4ccccc4)c3)n2n1)C1CC1 [WW-105] | 1000 to 10000 nM | 1000 to 10000 nM |
| O=C(Nc1nc2cccc(-c3ccc4cc[nH]c4c3)n2n1)C1CC1 [WW-106] | < 1000 nM | 100 to 1000 nM |
| O=C(Nc1nc2cccc(-c3ccc([N+](=O)[O-])cc3)n2n1)C1CC1 [WW-107] | 1000 to 10000 nM | 1000 to 10000 nM |
| CC(C)Cn1cc(-c2cccc3nc(NC(=O)C4CC4)nn23)cn1 [WW-108] | 1000 to 10000 nM | 1000 to 10000 nM |
